Data from patent US11872230B2, “Method of treating a methionine-dependent cancer” (Agency for Science, Technology and Research, priority 2018, dated 2024).
Entries after “also recorded” stand apart in the source; their conditions may differ. Where a SMILES comes first, the peptide text is derived from it. The star is where a group is joined. Cbz = O=C(OCc1ccccc1)*

How the values were obtained:
[1] = tested on: TS cells (lung TICs); assay: Tumor formation in NSG mice after transplantation of pre-treated TS cells; assay type: in vivo
Source text: (§1) 5×10^5 single cells were mixed in a 1:1 mixture of serum free DMEM/F12 and Matrigel (BD) and injected subcutaneously into the flanks of 4-6 week old male and female NOD.Cg-Prkdc^scid Il2rg^tm1wjl SzJ (Jackson Laboratories). About 6 weeks later, or when tumor sizes exceed 2 cm in length, mice were sacrificed and tumors harvested for analysis. All animal experiments were approved by the Agency for Science Technology and Research Singapore—Biological Resource Centre. Mice were randomized by sex.
(§2) To evaluate the methionine cycle as a therapeutic target in lung TICs, small molecule inhibitors that target enzymes within this pathway were employed, mimicking the effects of short-term methionine starvation (FIG. 5a). two inhibitors known to perturb methionine cycle activity and cellular methylation levels: 1) MAT2A inhibitor, FIDAS5; and 2) SAHH inhibitor, D9, which is an analog of DZNep. In a manner similar to amino acid starvation studies, TS cells were exposed transiently to the compounds for 48 h in culture and were immediately used for downstream tumorigenesis assays.

[2] = tested on: TS cells (lung TICs); assay: Soft agar colony formation of pre-treated TS cells; assay type: cell-based, human
Description: 2.5 ml lower layer of 0.7% agar in complete DMEM/F12 with 10% fetal bovine serum was placed in 3 wells of a 6 well dish, and permitted to solidify. 2×10^4 Cells (for 3 wells) were then suspended in a 2 ml layer of 0.35% agar in complete DMEM/F12 with 10% fetal bovine serum and layered on top of the bottom layer. Colonies were stained with crystal violet and counted after approximately 2 months.
as §2

[3] = tested on: histone methylation in GLDC KD cells; assay: Western blot of methylated histones in GLDC KD cells with metabolite supplementation; assay type: cell-based, human; details: SAM 500 μM 48 h, formate 0.5 mM, methyl-THF 20 μM or adenosine 200 μM
Description: (§3) 1.5×10^6 cells were lysed in Llaemli-SDS buffer and then sonicated. Total protein concentration was measured by Bradford assay. Total cell lysates were separated by SDS-PAGE and transferred onto nitrocellulose, followed by blocking in 5% (v/v) milk in Tris-buffered saline in Tween 20, probing with the indicated antibodies and visualized by chemiluminescence (Roche).

[4] = tested on: GLDC KD cells; assay: Tumor mass in NSG mice after transplantation of SAM supplemented GLDC KD cells; assay type: in vivo; details: GLDC KD cells supplemented with SAM for 48 hours before xenografting
Source text: as §1

[5] = tested on: MTHFR abundance in GLDC KD cells; assay: Western blot of MTHFR in SAM supplemented GLDC KD cells; assay type: cell-based, human
Description: (§4) 1.5×10^6 cells were lysed in Llaemli-SDS buffer and then sonicated. Total protein concentration was measured by Bradford assay. Total cell lysates were separated by SDS-PAGE and transferred onto nitrocellulose, followed by blocking in 5% (v/v) milk in Tris-buffered saline in Tween 20, probing with the indicated antibodies and visualized by chemiluminescence (Roche). Primary antibodies used were anti-β-Actin (sc-47778), anti-GAPDH (sc-32233) from Santa Cruz: anti-GLDC (ab97625), anti-H3 (ab1791), anti-H3 (dimethylK36) (ab9049), anti-MAT2A (ab77471), anti-MTR (ab9209), anti-H3 (trimethylK79) (ab2621), anti-MTHFR (ab125707), anti-MTAP (ab ab55517) from Abcam; anti-H3(trimethyl K4) (39159), anti-H3(trimethyl K27)(39155), anti-H3(trimethylK36)(61101) and anti-H3(trimethylK9)(39765) from Active Motif; anti-β-catenin (BD610154) from BD Biosciences; anti-SHMT2 (HPA020549) and anti-SAHH (WH0000191M8) from Sigma; anti-Symmetric Di-Methyl Arginine Motif (13222) from CST.

[6] = tested on: histone methylation in TS cells; assay: Western blot of methylated histones in TS cells; assay type: cell-based, human
Description: as §4, §2

[7] = tested on: TS cells (lung TICs); assay: Intraperitoneal administration to NSG mice subcutaneously implanted with lung TICs; assay type: in vivo; details: cisplatin 4 mg/kg i.p., three days, 6 weeks
Source text: as §1
Since FIDAS5 appeared to more specifically disrupt the methionine cycle and inhibit cellular methylation activities compared to D9, it was sought to test whether its systemic delivery could impact the tumorigenic potential of TS cells. These highly tumorigenic cells were first subcutaneously implanted into NSG mice and FIDAS5 (40 mg/kg) or corn oil carrier was immediately administered via intraperitoneal injection for three consecutive days. After 6 weeks, mice transiently treated with FIDAS5 produced tumors that were much smaller than carrier-treated controls. […] To exclude the possibility of general cytotoxicity associated with the inhibitor on TS cells, TS cell-implanted NSG mice were treated with cisplatin (4 mg/kg), a frontline chemotherapeutic agent that broadly target bulk cancer cells in NSCLC tumors, in the same manner (FIG. 5i). […]

[8] = tested on: ATP levels in Adh cells; assay: Steady-state ATP levels (CellTiter-Glo) in Adh cells; assay type: cell-based, human; details: formate 0.5 mM
Description: (§5) Cells were seeded into 96-well plates at a density of 1,000 cells/well at 10 replicate wells per condition. Cells were then left to equilibrate at 37° C. for 3 h. ATP was then quantified using the CellTiter-GLo reagent (Promega). 5 biological replicates were used.

[9] = tested on: ATP levels in knockdown TS cells; assay: Steady-state ATP levels (CellTiter-Glo) in GLDC/SHMT2 knockdown TS cells; assay type: cell-based, human; details: GLDC (or SHMT2) knockdown cells; formate 0.5 mM or adenosine 200 μM
Description: as §5

[10] = tested on: histone methylation in MTHFR overexpressing+GLDC KD cells; assay: Western blot of methylated histones in MTHFR overexpressing+GLDC KD cells; assay type: cell-based, human; details: formate 0.5 mM
Description: as §3

[11] = tested on: methylated histones in TS cells; assay: Protein turnover experiment (cycloheximide) of methylated histones in TS cells; assay type: cell-based, human; details: MG132 10 μM with 20 μg/ml cycloheximide
Description: as §4
5×10^5 cells were treated with 20 μg/ml of cycloheximide (Sigma) and harvested for immunoblotting at indicated time points thereafter.

[12] = TS cells, 500 μM SAM in the presence of FIDAS5
[13] = methionine-starved TS cells (48 h) supplemented with SAM 500 μM or homocysteine 250 μM

## C[S+](CC[C@H](N)C(=O)O)C[C@H]1O[C@@H](n2cnc3c(N)ncnc32)[C@H](O)[C@@H]1O (stereo partly drawn) [SAM, S-adenosyl methionine]
[1]; TS cells, 500 μM SAM in the presence of FIDAS5, transplanted into NSG mice
  tumor-formation capability: rescued, to a large extent
[1]; methionine starvation conditions, SAM 500 μM supplemented, NSG mice
  tumor-forming capability: rescued
[2]; [12]
  colony-formation capability: rescued, to a large extent
[2]; methionine starvation conditions, SAM 500 μM supplemented
  colony-forming capability: rescued
[3]
  histone methylation: reestablishment of histone methylation
[4]
  tumorigenic potential: incomplete rescue
[5]
  MTHFR abundance: recovery of MTHFR abundance
[6]; [12]
  histone methylation: rescued, to a large extent
[6]; [13]
  histone methylation: restored

## N.N.[Cl][Pt][Cl] [Cisplatin, cis-Diammineplatinum(II) dichloride]
[7]
  tumor growth: unable to halt tumor growth

## O=C[O-].[Na+] [formate, Sodium formate]
[8]
  ATP levels: could not rescue
[3]
  histone methylation: did not rescue
[9]
  steady state ATP levels: could be rescued; also recorded: rescued ATP levels
[10]
  histone methylation: fully rescued

## Nc1ncnc2c1ncn2[C@@H]1O[C@H](CO)[C@@H](O)[C@H]1O [adenosine, Adenosine]
[3]
  histone methylation: did not rescue
[9]
  steady state ATP levels: rescued ATP levels

## N[C@@H](CCS)C(=O)O [Homocysteine, homocysteine]
[6]; [13]
  histone methylation: failed to rescue

## CC(C)C[C@@H](C=O)NC(=O)[C@H](CC(C)C)NC(=O)[C@H](CC(C)C)NC(=O)OCc1ccccc1 [MG132] (Cbz-Leu-Leu-Leu-aldehyde)
[11]
  high turnover of methylated histones: rescued
